The text below walks through data of US8252810B2, “Bicycloamine derivatives” (Eisai R&D Management Co., Ltd., priority 2008, dated 2012).

The subject of assay [1] is sodium channels in cultured rat hippocampus. To be noted: Patent document 1, Example 129; cited from earlier work.
For another assay, the system named is ectopic firing. To be noted: as described in Patent document 1, Example 129; cited from earlier work.
The next assay deals with T1, human Nav1.8 (Homo sapiens, UniProt Q9Y5Y9).
T1 construct: expressed in transfected cells
Nature of the assay: Pharmacological effects on TTX-resistant Na channels in cells expressing human Nav1.8 gene (membrane potential dye, deltamethrin stimulation). The format is cell-based. How it is done: Pharmacological Effects on TTX-Resistant Na Channels in Cells Expressing Human Nav1.8 Gene
A cell line expressing human Nav1.8 gene was used to evaluate the pharmacological effects of compounds of the invention.
. A membrane potential-sensitive dye containing TTX (final concentration: 0.25 μM) was added to cells expressing human Nav1.8, prior to incubation at 37° C. for 30-60 minutes. • 2. The test compound was added to the cells, and the mixture was stationed for 15-30 minutes at room temperature while shielded from light. • 3. Deltamethrin (final concentration: 50 μM), a Nav1.8 channel stimulant, was added, and the change in fluorescence intensity due to increased membrane potential was measured. Pharmacological Evaluation
The Nav1.8 channel inhibition of the test compound was determined by the following equation. […] Test Results

Structures can show the parent of a compound that is named as a salt.

T1 sequence (Q9Y5Y9 whole entry): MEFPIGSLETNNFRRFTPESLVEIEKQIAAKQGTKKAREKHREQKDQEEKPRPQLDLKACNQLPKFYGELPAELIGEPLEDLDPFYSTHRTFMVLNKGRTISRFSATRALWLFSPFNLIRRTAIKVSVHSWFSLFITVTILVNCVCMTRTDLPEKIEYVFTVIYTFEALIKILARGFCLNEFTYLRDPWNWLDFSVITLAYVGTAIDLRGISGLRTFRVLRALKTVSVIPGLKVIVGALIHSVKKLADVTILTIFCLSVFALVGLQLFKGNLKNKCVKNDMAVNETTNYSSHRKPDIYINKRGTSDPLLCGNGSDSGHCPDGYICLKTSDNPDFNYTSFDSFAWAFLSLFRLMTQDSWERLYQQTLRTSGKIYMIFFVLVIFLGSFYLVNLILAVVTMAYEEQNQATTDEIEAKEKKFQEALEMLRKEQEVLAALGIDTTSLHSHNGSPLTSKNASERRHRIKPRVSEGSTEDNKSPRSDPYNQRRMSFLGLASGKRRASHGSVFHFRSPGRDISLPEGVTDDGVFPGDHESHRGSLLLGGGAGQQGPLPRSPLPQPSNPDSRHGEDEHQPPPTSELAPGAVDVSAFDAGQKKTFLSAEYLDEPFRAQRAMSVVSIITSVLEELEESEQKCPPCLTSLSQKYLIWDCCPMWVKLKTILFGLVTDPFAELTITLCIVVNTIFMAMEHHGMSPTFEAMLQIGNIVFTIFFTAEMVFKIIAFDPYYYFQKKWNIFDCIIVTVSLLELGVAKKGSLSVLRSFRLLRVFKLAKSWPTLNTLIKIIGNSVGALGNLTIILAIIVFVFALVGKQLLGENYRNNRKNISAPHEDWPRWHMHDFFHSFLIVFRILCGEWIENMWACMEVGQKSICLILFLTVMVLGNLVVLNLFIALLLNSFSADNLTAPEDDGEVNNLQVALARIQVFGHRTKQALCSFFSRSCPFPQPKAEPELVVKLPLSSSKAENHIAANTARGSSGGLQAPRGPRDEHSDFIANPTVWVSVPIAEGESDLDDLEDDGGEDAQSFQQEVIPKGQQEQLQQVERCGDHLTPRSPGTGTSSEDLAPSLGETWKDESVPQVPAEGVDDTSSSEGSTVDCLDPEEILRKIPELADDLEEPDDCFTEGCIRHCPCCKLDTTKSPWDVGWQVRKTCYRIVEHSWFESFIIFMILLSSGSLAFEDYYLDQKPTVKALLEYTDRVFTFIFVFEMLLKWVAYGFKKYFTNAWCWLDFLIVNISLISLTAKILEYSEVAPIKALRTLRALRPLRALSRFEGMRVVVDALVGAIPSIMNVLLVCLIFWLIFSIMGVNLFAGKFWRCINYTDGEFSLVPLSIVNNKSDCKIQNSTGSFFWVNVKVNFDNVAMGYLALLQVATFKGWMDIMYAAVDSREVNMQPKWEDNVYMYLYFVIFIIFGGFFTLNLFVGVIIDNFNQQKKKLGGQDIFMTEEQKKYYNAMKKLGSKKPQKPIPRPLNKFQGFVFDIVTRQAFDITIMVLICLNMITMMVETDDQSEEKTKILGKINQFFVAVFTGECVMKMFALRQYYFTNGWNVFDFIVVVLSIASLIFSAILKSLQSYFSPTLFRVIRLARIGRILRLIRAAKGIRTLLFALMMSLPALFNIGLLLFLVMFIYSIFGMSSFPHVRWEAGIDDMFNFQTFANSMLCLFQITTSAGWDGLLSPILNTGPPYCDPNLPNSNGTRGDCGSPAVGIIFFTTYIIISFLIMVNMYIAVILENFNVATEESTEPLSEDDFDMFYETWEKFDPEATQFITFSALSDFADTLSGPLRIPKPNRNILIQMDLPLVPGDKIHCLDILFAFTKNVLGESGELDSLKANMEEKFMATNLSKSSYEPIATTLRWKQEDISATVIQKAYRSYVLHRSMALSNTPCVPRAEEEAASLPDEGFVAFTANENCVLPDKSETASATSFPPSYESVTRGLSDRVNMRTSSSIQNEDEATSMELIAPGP

For the compound `O=c1[nH]cccc1CN1CC2CCCC(C1)C2/C=C/c1ccccc1F` (stereo not shown), the “inhibitory activity against sodium channels” value in assay [1] is given as “has an inhibitory activity”. In addition, in the assay with ectopic firing, the “inhibitory activity against ectopic firing” value was “inadequate”.
For the compound `CCn1c(C)nc(=O)n(C[C@H](O)CN2[C@@H]3CC[C@H]2C[C@@H](OCc2ccccc2CF)C3)c1=O` [Example 66, (Endo)-1-ethyl-3-{(R)-3-[3-(2-fluoromethylbenzyloxy)-8-azabicyclo[3.2.1]oct-8-yl]-2-hydroxypropyl}-6-methyl-1H-[1,3,5]triazine-2,4-dione oxalate], at human Nav1.8, the IC50 (commonly the concentration needed to halve the response being measured) came to 5.4 µM.
For `CNCCCN1c2ccccc2CCc2ccccc21` [desipramine], on human Nav1.8 (30 μM desipramine, reference for complete inhibition under deltamethrin stimulation), the Nav1.8 channel inhibition entry is given as “completely inhibits”.
